# Laboratory results from patent US11096985B2, “Antimicrobial peptides, their variants and uses” (priority 2015, dated 2021).
# Where a SMILES comes first, the peptide text is derived from it. [ ]: non-standard residue; d: D form.
# Key:
# [1] = test system: S. aureus COL (MRSA); test: Synergistic activity with Ertapenem (4 μg/ml) against MRSA, MIC; type: cell-based, Staphylococcus aureus; conditions: S. aureus COL, together with 4 μg/ml Ertapenem (synergistic activity)
# Procedure: (§1) Minimum inhibition concentrations (MICs) were determined against Escherichia coli (ATCC 25922), Staphylococcus aureus (ATCC 25923), Klebsiella pneumoniae (ATCC 10031) and Pseudomonas aeruginosa (ATCC 27853). Also clinical strains of E. coli, K. pneumoniae, E. cloacae, P. aeruginosa, Serratia marcescens, Proteus mirabilis, S. pneumoniae, Acinetobacter baumannii, A. johnsonii and S. aureus were used for MICs assays. Additionally, clinical strains of yeast including Candida albicans, C. glabrata, C. parapsilosis and C. quillermondiae were used. The susceptibility of these microorganisms to Chain peptides were determined using micro broth dilution assay. Colonies of the respective microorganism from Muller Hinton (MH) agar plates incubated overnight were suspended in MH broth media and final concentration of microorganism was adjusted to 5.0×10^5 cfu/ml. An aliquot of 10 μl of each Chain peptide, or gentamicin, tetracycline as reference antibiotics were added in differing concentrations along with 90 μl of bacterial suspension to 96 well polypropylene plates and incubated at 37° C. for 20 to 24 hours. Concentrations of Chain peptides and reference antibiotics ranged from 0.125 to 128 μg/ml and the MICs were recorded as the lowest concentration with no visual growth of bacteria. Similarly, antifungal MICs were tested in Potato dextrose broth.
# (§2) Peptides Chain 104, Chain 105, Chain 201, Chain 308, Chain 310 were tested against antibiotic-sensitive strains of S. aureus RN4220 and methicillin resistant strains of S. aureus COL (MRSA). Chain peptides comprising of either L- or D-form amino acids were tested against these bacteria, and the D-form peptides were found have better activity compared to L-form (Table 6). Synergistic activity of chain peptides along with Ertapenem (4 μg/ml) was tested to know whether it will influence the activity against MRSA strains. […] Chain 310 has the best antibacterial activity against the MRSA strains with a MIC of 0.06 & 0.03 μg/ml along with Ertapenem (4 μg/ml) for both forms of L and D-peptides (Table 6).
# [2] = test system: S. aureus RN4220; type: cell-based, Staphylococcus aureus; conditions: antibiotic sensitive strain S. aureus RN4220
# Procedure: as §1, §2
# [3] = test system: clinical strains of C. parapsilosis; test: MIC, clinical yeast strains, C. parapsilosis; type: cell-based, Candida parapsilosis; parameters: unit: μg/ml
# Procedure: as §1
# (§3) Clinical strains of yeasts including Candida albicans, C. glabrata, C. parapsilosis and C. quillermondiae were also tested with the 12 Chain peptides. The minimum inhibitory concentration (MICs) varied between these peptides and are presented in Tables 4a, 4b, 4c and 5a, 5b, 5c. Peptides Chain 105, 201 and 308 are broad spectrum antimicrobials with MICs between 0.5-32 μg/ml against all the bacteria and yeasts tested, except Serratia marcescens and Proteus mirabilis, against which the MICs were between 64-128 μg/ml. Peptide Chain 306 has narrow spectrum activity against E.coli at 1 μg/ml and for the rest of the bacterial strains at >32 μg/ml (FIG. 10).
# [4] = test system: clinical strains of C. glabrata; test: MIC, clinical yeast strains, C. glabrata; type: cell-based, Candida glabrata; parameters: unit: μg/ml
# Procedure: as §1, §3
# [5] = test system: clinical strains of C. quillermondiae; test: MIC, clinical yeast strains, C. quillermondiae; type: cell-based; conditions: C. quillermondiae clinical yeast strain 1
# Procedure: as §1, §3
# [6] = test system: clinical strains of Candida albicans; test: MIC, clinical yeast strains, Candida albicans; type: cell-based; parameters: unit: μg/ml
# Procedure: as §1, §3
# [7] = C. parapsilosis clinical yeast strain 1
# [8] = C. parapsilosis clinical yeast strain 2
# [9] = C. parapsilosis clinical yeast strain 3
# [10] = C. parapsilosis clinical yeast strain 4
# [11] = C. glabrata clinical yeast strain 1
# [12] = C. glabrata clinical yeast strain 2
# [13] = C. glabrata clinical yeast strain 3
# [14] = C. glabrata clinical yeast strain 4
# [15] = Candida albicans clinical yeast strain 1
# [16] = Candida albicans clinical yeast strain 2
# [17] = Candida albicans clinical yeast strain 3
# [18] = Candida albicans clinical yeast strain 4
# [19] = Candida albicans clinical yeast strain 5
smiles,measurement,setting,value
CC[C@@H](C)[C@@H](NC(=O)[C@@H](CCSC)NC(=O)[C@@H](C)NC(=O)[C@@H](CCCNC(=N)N)NC(=O)[C@@H](Cc1c[nH]c2ccccc12)NC(=O)[C@@H](CCCCN)NC(=O)[C@H](N)CCCNC(=N)N)C(=O)N[C@H](CCCNC(=N)N)C(=O)N[C@H](CC(C)C)C(=O)N[C@H](Cc1c[nH]cn1)C(=O)N[C@H](C)C(=O)N[C@H](CCCCN)C(=O)N[C@H](CCCNC(=N)N)C(=O)N[C@H](CC(C)C)C(=O)N[C@H](CCCNC(=N)N)C(=O)N[C@H](CCCCN)C(=O)O [104 D] (H-[dR][dK][dW][dR][dA][dM][dI][dR][dL][dH][dA][dK][dR][dL][dR][dK]-OH),"Minimum inhibitory concentration (MIC), S. aureus COL + 4 μg/ml Ertapenem",[1],4 µg/mL
same,"Minimum inhibitory concentration (MIC), S. aureus RN4220",[2],64 µg/mL
CC[C@@H](C)[C@@H](NC(=O)[C@@H](CCSC)NC(=O)[C@@H](C)NC(=O)[C@@H](CCCNC(=N)N)NC(=O)[C@@H](Cc1c[nH]c2ccccc12)NC(=O)[C@@H](CCCCN)NC(=O)[C@H](N)CCCNC(=N)N)C(=O)N[C@H](CCCNC(=N)N)C(=O)N[C@H](CC(C)C)C(=O)N[C@H](Cc1c[nH]cn1)C(=O)N[C@H](C)C(=O)N[C@H](CCCCN)C(=O)N[C@H](Cc1c[nH]c2ccccc12)C(=O)N[C@H](CC(C)C)C(=O)N[C@H](CCCNC(=N)N)C(=O)N[C@H](CCCCN)C(=O)O [105 D] (H-[dR][dK][dW][dR][dA][dM][dI][dR][dL][dH][dA][dK][dW][dL][dR][dK]-OH),"Minimum inhibitory concentration (MIC), S. aureus COL + 4 μg/ml Ertapenem",[1],2 µg/mL
same,"Minimum inhibitory concentration (MIC), S. aureus RN4220",[2],16 µg/mL
CC[C@@H](C)[C@@H](NC(=O)[C@@H](Cc1c[nH]c2ccccc12)NC(=O)[C@H](N)CCCCN)C(=O)N[C@@H](C(=O)N[C@H](Cc1c[nH]c2ccccc12)C(=O)N[C@H](CCCNC(=N)N)C(=O)N[C@H](Cc1c[nH]c2ccccc12)C(=O)N[C@H](CCCNC(=N)N)C(=O)N[C@H](Cc1ccccc1)C(=O)N[C@H](CCCCN)C(=O)N[C@H](CCCNC(=N)N)C(=O)O)C(C)C [201 D] (H-[dK][dW][dI][dV][dW][dR][dW][dR][dF][dK][dR]-OH),"Minimum inhibitory concentration (MIC), S. aureus COL + 4 μg/ml Ertapenem",[1],1 µg/mL
same,"Minimum inhibitory concentration (MIC), S. aureus RN4220",[2],2 µg/mL
CC(C)C[C@@H](NC(=O)[C@H](N)CCCNC(=N)N)C(=O)N[C@H](CCCCN)C(=O)N[C@H](Cc1c[nH]c2ccccc12)C(=O)N[C@H](Cc1ccccc1)C(=O)N[C@H](CC(C)C)C(=O)N[C@H](CC(C)C)C(=O)N[C@H](Cc1ccccc1)C(=O)N[C@H](CCCNC(=N)N)C(=O)N[C@H](CCCCN)C(=O)N[C@H](CCCNC(=N)N)C(=O)O [308 D] (H-[dR][dL][dK][dW][dF][dL][dL][dF][dR][dK][dR]-OH),"Minimum inhibitory concentration (MIC), S. aureus COL + 4 μg/ml Ertapenem",[1],1 µg/mL
same,"Minimum inhibitory concentration (MIC), S. aureus RN4220",[2],4 µg/mL
CC(C)C[C@@H](NC(=O)[C@@H](CCCCN)NC(=O)[C@@H](CCCCN)NC(=O)[C@@H](Cc1ccccc1)NC(=O)[C@@H](CC(C)C)NC(=O)[C@@H](Cc1c[nH]c2ccccc12)NC(=O)[C@@H](CCCNC(=N)N)NC(=O)[C@@H](Cc1c[nH]c2ccccc12)NC(=O)[C@@H](CCCCN)NC(=O)[C@@H](CCCNC(=N)N)NC(=O)[C@H](N)CCCCN)C(=O)O [310 D] (H-[dK][dR][dK][dW][dR][dW][dL][dF][dK][dK][dL]-OH),"Minimum inhibitory concentration (MIC), S. aureus COL + 4 μg/ml Ertapenem",[1],<0.03 µg/mL
same,"Minimum inhibitory concentration (MIC), S. aureus RN4220",[2],>64 µg/mL
"C[C@@H]1[C@H](O)[C@@H](C)/C=C/C=C/C=C/C=C/C=C/C=C/C=C/[C@H](O[C@@H]2O[C@H](C)[C@@H](O)[C@H](N)[C@@H]2O)C[C@@H]2O[C@](O)(C[C@@H](O)C[C@@H](O)[C@H](O)CC[C@@H](O)C[C@@H](O)CC(=O)O[C@H]1C)C[C@H](O)[C@H]2C(=O)O [Amphotericin B, reference compound]",Minimum inhibitory concentration,[3]; [7],2
same,Minimum inhibitory concentration,[3]; [8],2
same,Minimum inhibitory concentration,[3]; [9],2
same,Minimum inhibitory concentration,[3]; [10],2
same,Minimum inhibitory concentration,[4]; [11],4
same,Minimum inhibitory concentration,[4]; [12],4
same,Minimum inhibitory concentration,[4]; [13],2
same,Minimum inhibitory concentration,[4]; [14],4
same,Minimum inhibitory concentration,[5],2
same,Minimum inhibitory concentration,[6]; [15],2
same,Minimum inhibitory concentration,[6]; [16],0.5
same,Minimum inhibitory concentration,[6]; [17],2
same,Minimum inhibitory concentration,[6]; [18],2
same,Minimum inhibitory concentration,[6]; [19],2
CC(C)C[C@@H](NC(=O)[C@@H](CCCCN)NC(=O)[C@@H](Cc1c[nH]c2ccccc12)NC(=O)[C@@H](CCCCN)NC(=O)[C@@H](C)NC(=O)[C@@H](Cc1c[nH]cn1)NC(=O)[C@@H](CC(C)C)NC(=O)[C@@H](CCCNC(=N)N)NC(=O)[C@@H](Cc1c[nH]c2ccccc12)NC(=O)[C@H](N)Cc1c[nH]c2ccccc12)C(=O)N[C@H](Cc1c[nH]c2ccccc12)C(=O)O [Chain109D] (H-[dW][dW][dR][dL][dH][dA][dK][dW][dK][dL][dW]-OH),Minimum inhibitory concentration,[3]; [7],128
same,Minimum inhibitory concentration,[3]; [8],128
same,Minimum inhibitory concentration,[3]; [9],128
same,Minimum inhibitory concentration,[3]; [10],8
same,Minimum inhibitory concentration,[4]; [11],128
same,Minimum inhibitory concentration,[4]; [12],128
same,Minimum inhibitory concentration,[4]; [13],16
same,Minimum inhibitory concentration,[4]; [14],64
same,Minimum inhibitory concentration,[5],128
same,Minimum inhibitory concentration,[6]; [15],128
same,Minimum inhibitory concentration,[6]; [16],128
same,Minimum inhibitory concentration,[6]; [17],128
same,Minimum inhibitory concentration,[6]; [18],128
same,Minimum inhibitory concentration,[6]; [19],128
CC[C@H](C)[C@H](NC(=O)[C@H](CCSC)NC(=O)[C@H](C)NC(=O)[C@H](CCCNC(=N)N)NC(=O)[C@H](Cc1c[nH]c2ccccc12)NC(=O)[C@H](CCCCN)NC(=O)[C@@H](N)CCCNC(=N)N)C(=O)N[C@@H](CCCNC(=N)N)C(=O)N[C@@H](CC(C)C)C(=O)N[C@@H](Cc1c[nH]cn1)C(=O)N[C@@H](C)C(=O)N[C@@H](CCCCN)C(=O)N[C@@H](CCCNC(=N)N)C(=O)N[C@@H](CC(C)C)C(=O)N[C@@H](CCCNC(=N)N)C(=O)N[C@@H](CCCCN)C(=O)O [Compound 104] (H-RKWRAMIRLHAKRLRK-OH),"Minimum inhibitory concentration (MIC), S. aureus COL + 4 μg/ml Ertapenem",[1],0.25 µg/mL
same,"Minimum inhibitory concentration (MIC), S. aureus RN4220",[2],>64 µg/mL
CC[C@H](C)[C@H](NC(=O)[C@H](CCSC)NC(=O)[C@H](C)NC(=O)[C@H](CCCNC(=N)N)NC(=O)[C@H](Cc1c[nH]c2ccccc12)NC(=O)[C@H](CCCCN)NC(=O)[C@@H](N)CCCNC(=N)N)C(=O)N[C@@H](CCCNC(=N)N)C(=O)N[C@@H](CC(C)C)C(=O)N[C@@H](Cc1c[nH]cn1)C(=O)N[C@@H](C)C(=O)N[C@@H](CCCCN)C(=O)N[C@@H](Cc1c[nH]c2ccccc12)C(=O)N[C@@H](CC(C)C)C(=O)N[C@@H](CCCNC(=N)N)C(=O)N[C@@H](CCCCN)C(=O)O [Compound 105] (H-RKWRAMIRLHAKWLRK-OH),"Minimum inhibitory concentration (MIC), S. aureus COL + 4 μg/ml Ertapenem",[1],0.5 µg/mL
same,"Minimum inhibitory concentration (MIC), S. aureus RN4220",[2],>64 µg/mL
CC[C@H](C)[C@H](NC(=O)[C@H](Cc1c[nH]c2ccccc12)NC(=O)[C@@H](N)CCCCN)C(=O)N[C@H](C(=O)N[C@@H](Cc1c[nH]c2ccccc12)C(=O)N[C@@H](CCCNC(=N)N)C(=O)N[C@@H](Cc1c[nH]c2ccccc12)C(=O)N[C@@H](CCCNC(=N)N)C(=O)N[C@@H](Cc1ccccc1)C(=O)N[C@@H](CCCCN)C(=O)N[C@@H](CCCNC(=N)N)C(=O)O)C(C)C [Compound 201] (H-KWIVWRWRFKR-OH),"Minimum inhibitory concentration (MIC), S. aureus COL + 4 μg/ml Ertapenem",[1],0.5 µg/mL
same,"Minimum inhibitory concentration (MIC), S. aureus RN4220",[2],64 µg/mL
